Key:
[1] = target: T1, TEC (Homo sapiens, UniProt P42680); assay: Inhibition of a panel of kinases (in vitro HotSpot kinase assay, 33P-ATP, 1 μM ATP); format: biochemical; conditions: for TEC/Btk: ratio of TEC IC50 to Btk IC50 (selectivity); for IC50: HotSpot kinase assay, 1 μM ATP
T1 sequence (P42680 1-631): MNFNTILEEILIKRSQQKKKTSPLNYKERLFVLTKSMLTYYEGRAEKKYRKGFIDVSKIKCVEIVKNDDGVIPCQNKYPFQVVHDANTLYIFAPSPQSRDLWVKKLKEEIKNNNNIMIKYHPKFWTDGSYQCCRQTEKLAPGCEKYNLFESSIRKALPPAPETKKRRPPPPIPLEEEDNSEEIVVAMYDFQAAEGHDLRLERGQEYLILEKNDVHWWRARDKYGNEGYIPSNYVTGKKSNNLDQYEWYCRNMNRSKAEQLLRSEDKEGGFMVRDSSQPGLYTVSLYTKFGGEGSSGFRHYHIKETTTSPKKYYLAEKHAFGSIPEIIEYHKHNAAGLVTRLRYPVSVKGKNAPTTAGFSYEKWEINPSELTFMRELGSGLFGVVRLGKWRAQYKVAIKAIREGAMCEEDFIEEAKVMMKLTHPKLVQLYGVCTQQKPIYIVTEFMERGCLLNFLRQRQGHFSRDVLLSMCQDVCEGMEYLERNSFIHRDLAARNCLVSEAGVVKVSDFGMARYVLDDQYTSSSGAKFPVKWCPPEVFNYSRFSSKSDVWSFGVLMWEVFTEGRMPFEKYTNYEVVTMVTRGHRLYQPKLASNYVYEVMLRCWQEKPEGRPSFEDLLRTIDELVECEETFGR
Protocol: Example 63: Inhibition of a Panel of Kinases The degree of inhibition of a panel of kinases is determined using the in vitro HotSpot kinase assay (purified enzymes, ^33P-ATP, an appropriate substrate and 1 μM ATP).

[2] = target: T2, Btk (Homo sapiens, UniProt Q06187); assay: Btk in vitro inhibitory activity (one of Method A TR-FRET, Method B electrophoretic mobility shift, Method C radiometric filter binding); format: biochemical; conditions: wild-type Btk; read-out: Btk-WT IC50
T2 construct: purified from insect cells as a full-length construct containing a N-terminal 6X-His tag; His6 (N); made in house; host or cells: insect cells (Method C)
T2 sequence (Q06187 whole entry): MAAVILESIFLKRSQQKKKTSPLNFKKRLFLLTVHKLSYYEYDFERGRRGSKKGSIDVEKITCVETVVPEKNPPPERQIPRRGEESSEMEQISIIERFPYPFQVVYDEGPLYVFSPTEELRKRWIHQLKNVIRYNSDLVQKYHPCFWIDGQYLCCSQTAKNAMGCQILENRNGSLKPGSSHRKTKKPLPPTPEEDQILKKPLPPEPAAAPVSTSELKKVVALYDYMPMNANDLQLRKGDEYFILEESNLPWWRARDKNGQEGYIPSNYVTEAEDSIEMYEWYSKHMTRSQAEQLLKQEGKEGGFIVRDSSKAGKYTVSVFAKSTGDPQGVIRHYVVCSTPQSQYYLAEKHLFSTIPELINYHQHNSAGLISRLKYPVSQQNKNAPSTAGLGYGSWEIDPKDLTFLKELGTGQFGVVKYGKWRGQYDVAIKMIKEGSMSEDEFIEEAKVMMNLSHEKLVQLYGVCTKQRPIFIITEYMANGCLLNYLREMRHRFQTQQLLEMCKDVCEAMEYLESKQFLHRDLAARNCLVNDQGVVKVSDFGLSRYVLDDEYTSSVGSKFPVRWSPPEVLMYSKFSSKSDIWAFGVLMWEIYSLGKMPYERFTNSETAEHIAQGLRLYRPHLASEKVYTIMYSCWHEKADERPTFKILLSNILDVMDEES
Protocol: Example 62a: Btk In Vitro Inhibitory Activity (Method A)
Btk kinase activity is determined using a time-resolved fluorescence resonance energy transfer (TR-FRET) methodology. Measurements are performed in a reaction volume of 50 μL using 96-well assay plates. […] The reaction is quenched by the addition of 1.2 equivalents of EDTA (relative to divalent cation) in 25 μL of 1× Lance buffer (Perkin-Elmer). Streptavidin-APC (Perkin-Elmer) and Eu-labeled p-Tyr100 antibody (Perkin-Elmer) in 1× Lance buffer are added in a 25 μL volume to give final concentrations of 100 nM and 2.5 nM, respectively, and the mixture is allowed to incubate for one hour. The TR-FRET signal is measured on a multimode plate reader with an excitation wavelength (λEx) of 330 nm and detection wavelengths (λEm) of 615 and 665 nm. Activity is determined by the ratio of the fluorescence at 665 nm to that at 615 nm. For each compound, enzyme activity is measured at various concentrations of compound. Negative control reactions are performed in the absence of inhibitor in replicates of six, and two no-enzyme controls are used to determine baseline fluorescence levels. Inhibition constants, Ki(app), were obtained using the program BatchKi (Kuzmic et al. (2000), Anal. Biochem. 286:45-50). IC50s are obtained according to the equation:
IC50={Ki(app)/(1+[ATP]/Km^ATP)}+[E]total/2;
For all kinases, [ATP]=Km^ATP, [Btk]total=0.5 nM and [Lck]total=6 nM.
Example 62b: Btk In Vitro Inhibitory Activity (Method B)
Kinase activity is measured in vitro using electrophoretic mobility shift assay. The kinase reactions are assembled in a total volume of 25 μL in 384 well plates. The reactions comprise: BTK enzyme (1 nM, N-terminal His6-tagged, recombinant, full-length, human BTK purified from baculovirus Sf21 insect cell system, 293HEK, or other suitable source), inhibitor, ATP, fluorescently labeled peptide substrate (1 μM, FAM-GEEPLYWSFPAKKK-NH2) in a reaction buffer composed of 100 mM HEPES, pH7.5, 5 mM MgCl2 1 mM DTT, 0.1% bovine serum albumin, 0.01% Triton X-100, and 1% DMSO. The reaction is incubated and is quenched by the addition of termination buffer (100 mM HEPES, pH 7.5, 0.01% Triton X-100, 30 mM EDTA). The terminated reactions are analyzed using a 12 channel LabChip® 3000 microfluidic detection instrument (Caliper Life Sciences). The enzymatic phosphorylation of the peptide results in a change in net charge, enabling electrophoretic separation of product from substrate peptide. As substrate and product peptides are separated, two peaks of fluorescence are observed. Change in the relative fluorescence intensity of the substrate and product peaks is the parameter measured, reflecting enzyme activity. In the presence of an inhibitor, the ratio between product and substrate is altered: the signal of the product decreases, while the signal of the substrate increases.
Activity in each sample is determined as the product to sum ratio (PSR):P/(S+P), where P is the peak height of the product peptide and S is the peak height of the substrate peptide. For each compound, enzyme activity is measured at various concentrations (12 concentrations of compound spaced by 3× dilution intervals). Negative control samples (0%—inhibition in the absence of inhibitor) and positive control samples (100%—inhibition, in the presence of 20 mM EDTA) are assembled in replicates of four and are used to calculate %—inhibition values for each inhibitor at each concentration. Percent inhibition (Pinh) is determined using following equation:
Pinh=(PSR0%−PSRinh)/(PSR0%−PSR100%)*100, where PSRinh is the product sum ratio in the presence of inhibitor, PSR0% is the average product sum ration in the absence of inhibitor and PSR100% is the average product sum ratio in 100%—inhibition control samples.
The IC50 values of inhibitors are determined by 4 parameter sigmoidal dose-response model fitting of the inhibition curves (Pinh versus inhibitor concentration) using XLfit 4 software. […]

| Structure (SMILES) | TEC/Btk [1] | IC50 [2] | IC50 [1] |
| --- | --- | --- | --- |
| CC(C)(C)c1ccc(C(=O)NCc2ccc(-c3ccnc4[nH]nc(N[C@H]5CC[C@H](O)CC5)c34)cc2F)cc1 [Compound 12, 4-tert-butyl-N-{[2-fluoro-4-(3-{[(1r,4r)-4-hydroxycyclohexyl]amino}-1H-pyrazolo[3,4-b]pyridin-4-yl)phenyl]methyl}benzamide] | 11 | 879 nM | – |
| CC(C)(O)c1ccc(C(=O)NCc2ccc(-c3ccnc4[nH]nc(N[C@H]5CC[C@H](O)CC5)c34)cc2F)cc1 [Compound 26, N-{[2-fluoro-4-(3-{[(1r,4r)-4-hydroxycyclohexyl]amino}-1H-pyrazolo[3,4-b]pyridin-4-yl)phenyl]methyl}-4-(2-hydroxypropan-2-yl)benzamide] | >100 | 932 nM | > 10000 nM |
| CC(C)(C)c1cc(C(=O)NCc2ccc(-c3ccnc4[nH]nc(N[C@H]5CC[C@H](O)CC5)c34)cc2F)no1 [Compound 27, 5-tert-butyl-N-{[2-fluoro-4-(3-{[(1r,4r)-4-hydroxycyclohexyl]amino}-1H-pyrazolo[3,4-b]pyridin-4-yl)phenyl]methyl}-1,2-oxazole-3-carboxamide] | 142 | 44.2 nM | 6260 nM |
| CC(C)(C)c1ccc2c(c1)CCN(Cc1ccc(-c3ccnc4[nH]nc(N[C@@H]5CCN(C=O)C5)c34)cc1F)C2=O [Compound 60, (3R)-3-[(4-{4-[(6-tert-butyl-1-oxo-1,2,3,4-tetrahydroisoquinolin-2-yl)methyl]-3-fluorophenyl}-1H-pyrazolo[3,4-b]pyridin-3-yl)amino]pyrrolidine-1-carbaldehyde] | – | 21 nM | 7420 nM |
| CCc1nc(C(=O)NCc2ccc(-c3ccnc4[nH]nc(N[C@@H]5CCNC5)c34)cc2F)no1 [Example 54] | – | > 10000 nM | > 10000 nM |
| CC(C)(C)c1ccc(C(=O)NCc2ccc(-c3ccnc4[nH]nc(N[C@H]5CCN(C=O)C5)c34)cc2F)cc1 [Example 61, 4-tert-butyl-N-{[2-fluoro-4-(3-{[(3S)-1-formylpyrrolidin-3-yl]amino}-1H-pyrazolo[3,4-b]pyridin-4-yl)phenyl]methyl}benzamide] | 174 | 34.1 nM | 5950 nM |
| C[C@H](NC(=O)c1ccc(C(C)(C)C)cc1)c1ccc(-c2ccnc3[nH]nc(N[C@@H]4CCNC4)c23)cc1 [Example 91, 4-tert-butyl-N-[(1S)-1-[4-(3-{[(3R)-pyrrolidin-3-yl]amino}-1H-pyrazolo[3,4-b]pyridin-4-yl)phenyl]ethyl]benzamide] | – | > 10000 nM | > 10000 nM |

Second part, the molecule after the results:

| TEC/Btk [1] | IC50 [2] | IC50 [1] | Structure (SMILES) |
| --- | --- | --- | --- |
| – | 41.9 nM | – | C[C@H](NC(=O)c1noc(C(C)(C)C)n1)c1ccc(-c2ccnc3[nH]nc(N[C@@H]4CCN(C(=O)N(C)C)C4)c23)cc1F [Example 291, 5-tert-butyl-N-{(1S)-1-[4-(3-{[(3R)-1-(dimethylcarbamoyl)pyrroli-din-3-yl]amino}-1H-pyrazolo[3,4-b]pyridin-4-yl)-2-fluorophenyl]ethyl}-1,2,4-oxadiazole-3-carboxamide] |
| – | 323 nM | – | CC1(C)Cc2cc3n(c2C1)CCN(c1nccc(-c2ccnc4[nH]nc(NC5CCNC5)c24)c1CO)C3=O (stereo not shown) [Example 297, 2-[3-(hydroxymethyl)-4-{3-[(pyrrolidin-3-yl)amino]-1H-pyrazolo[3,4-b]pyridin-4-yl}pyridin-2-yl]-7,7-dimethyl-3,4,7,8-tetrahydro-2H-cyclopenta[4,5]pyrrolo[1,2-a]pyrazin-1(6H)-one] |
| – | 175 nM | – | CN(C)C(=O)N1CC[C@@H](Nc2n[nH]c3nccc(-c4ccnc(N5CCn6c(cc7c6CC(C)(C)C7)C5=O)c4CO)c23)C1 [Example 299, (3R)-3-({4-[2-(7,7-dimethyl-1-oxo-1,3,4,6,7,8-hexahydro-2H-cyclopenta[4,5]pyrrolo[1,2-a]pyrazin-2-yl)-3-(hydroxymethyl)pyridin-4-yl]-1H-pyrazolo[3,4-b]pyridin-3-yl}amino)-N,N-dimethylpyrrolidine-1-carboxamide] |
| – | 531 nM | – | CC(C)Cc1cc(C(=O)NCc2ccc(-c3ccnc4[nH]nc(N[C@@H]5CCCN(C(=O)N(C)C)[C@@H]5C)c34)cc2F)no1 [Example 306, (2R,3R)-3-({4-[3-fluoro-4-({[5-(2-methylpropyl)-1,2-oxazole-3-carbonyl]amino}methyl)phenyl]-1H-pyrazolo[3,4-b]pyridin-3-yl}amino)-N,N,2-trimethylpiperidine-1-carboxamide] |
| – | 156 nM | – | C[C@H]1CC[C@@H](N)CN1c1n[nH]c2nccc(-c3ccc(CNC(=O)c4cc(C(C)(C)C)on4)c(F)c3)c12 [Example 322, N-[(4-{3-[(2S,5R)-5-amino-2-methylpiperidin-1-yl]-1H-pyrazolo[3,4-b]pyridin-4-yl}-2-fluorophenyl)methyl]-5-tert-butyl-1,2-oxazole-3-carboxamide] |
| – | 509 nM | – | CN(C)C(=O)N1CC[C@@H](Nc2n[nH]c3nccc(-c4ccc(CNC(=O)c5coc(C6CCC6)n5)c(F)c4)c23)C1 [Example 328, 2-cyclobutyl-N-{[4-(3-{[(3R)-1-(dimethylcarbamoyl)pyrroli-din-3-yl]amino}-1H-pyrazolo[3,4-b]pyridin-4-yl)-2-fluorophenyl]methyl}-1,3-oxazole-4-carboxamide] |
| – | 183 nM | – | CN1CCN(c2n[nH]c3nccc(-c4ccc(CNC(=O)c5nc(C(C)(C)C)no5)c(F)c4)c23)C(=O)C1=O [Example 381, 3-tert-butyl-N-({2-fluoro-4-[3-(4-methyl-2,3-dioxopiperazin-1-yl)-1H-pyrazolo[3,4-b]pyridin-4-yl]phenyl}methyl)-1,2,4-oxadiazole-5-carboxamide] |
| – | 5.64 nM | – | CN1C[C@@H](Nc2n[nH]c3nccc(-c4ccc(CNC(=O)c5nc(C(C)(C)C)no5)c(F)c4)c23)CC1=O [Example 392, 3-tert-butyl-N-{[2-fluoro-4-(3-{[(3S)-1-methyl-5-oxopyrrolidin-3-yl]amino}-1H-pyrazolo[3,4-b]pyridin-4-yl)phenyl]methyl}-1,2,4-oxadiazole-5-carboxamide] |
